Laboratory results from patent publication US9725445B2, “Cycloalkyl nitrile pyrazolo pyridones as Janus kinase inhibitors” (Merck Sharp & Dohme Corp., priority 2013, dated 2017).

Assays:
JAK1 = JAK1 (Homo sapiens (Human), UniProt P23458); assay: Jak biochemical HTRF assay, JAK1; settings: HTRF biochemical assay, recombinant GST-tagged catalytic domain; read-out: JAK1 IC50
JAK2 = JAK2 (Homo sapiens (Human), UniProt O60674); assay: Jak biochemical HTRF assay, JAK2; settings: HTRF biochemical assay, recombinant GST-tagged catalytic domain; read-out: JAK2 IC50
Chain of JAK2 (O60674 849-1124): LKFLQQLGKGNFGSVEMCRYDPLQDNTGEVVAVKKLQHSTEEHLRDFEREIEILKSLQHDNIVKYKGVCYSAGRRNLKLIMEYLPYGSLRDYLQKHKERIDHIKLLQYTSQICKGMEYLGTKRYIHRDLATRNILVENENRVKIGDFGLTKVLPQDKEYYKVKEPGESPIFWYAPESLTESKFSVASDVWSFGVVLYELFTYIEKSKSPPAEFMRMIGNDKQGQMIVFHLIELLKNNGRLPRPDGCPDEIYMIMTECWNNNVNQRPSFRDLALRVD

Chain of JAK1 (P23458 875-1153): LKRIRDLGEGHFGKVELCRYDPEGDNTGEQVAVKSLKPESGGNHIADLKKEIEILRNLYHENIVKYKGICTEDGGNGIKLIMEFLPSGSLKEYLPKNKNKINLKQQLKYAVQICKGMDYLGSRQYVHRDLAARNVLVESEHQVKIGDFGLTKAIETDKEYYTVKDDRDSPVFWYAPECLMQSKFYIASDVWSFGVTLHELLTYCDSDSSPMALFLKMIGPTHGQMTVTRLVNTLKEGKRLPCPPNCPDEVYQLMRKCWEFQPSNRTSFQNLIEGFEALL

Row | Compound | IC50 (JAK1) [nM] | IC50 (JAK2) [nM]
1 | N#C[C@H]1CCCC[C@@H]1n1nc(Nc2ccc(S(=O)(=O)NCc3ccccc3)cc2)c2c(=O)[nH]ccc21 [Example 3-19, N-benzyl-4-({1-[(1S,2S)-2-cyanocyclohexyl]-4-oxo-4,5-dihydro-1H-pyrazolo[4,3-c]pyridin-3-yl}amino)benzenesulfonamide] | 0.21 | 1.2
2 | N#C[C@H]1CCCC[C@@H]1n1nc(Nc2ccc3c(c2)CNC3)c2c(=O)[nH]ccc21 [Example 12-1, (1S,2S)-2-(3-(Isoindolin-5-ylamino)-4-oxo-4,5-dihydro-H-pyrazolo[4,3-c]pyridin-1-yl)cyclohexanecarbonitrile] | 0.31 | 0.86
3 | N#C[C@@H]1CCC[C@H]1n1nc(Nc2ccnc(F)c2)c2c(=O)[nH]ccc21 [Example 3-93, (1R,2R)-2-{3-[(2-fluoropyridin-4-yl)amino]-4-oxo-4,5-dihydro-1H-pyrazolo[4,3-c]pyridin-1-yl}cyclopentanecarbonitrile] | 12 | 48
4 | N#C[C@H]1CCC[C@@H]1n1nc(Nc2ccc(C(N)C(F)(F)F)cc2)c2c(=O)[nH]ccc21 (single isomer, unassigned) [Example 3-137, (1S,2S)-2-[3-({4-[(1S or 1R)-1-amino-2,2,2-trifluoroethyl]phenyl}amino)-4-oxo-4,5-dihydro-1H-pyrazolo[4,3-c]pyridin-1-yl]cyclopentanecarbonitrile] | 0.22 | 0.59
5 | C[C@H](NCC(F)(F)F)c1ccc(Nc2nn([C@H]3CCCC[C@@H]3C#N)c3cc[nH]c(=O)c23)cc1 [Example 3-73, (1S,2S)-2-{4-oxo-3-[(4-{(1S)-1-[(2,2,2-trifluoroethyl)amino]ethyl}phenyl)amino]-4,5-dihydro-1H-pyrazolo[4,3-c]pyridin-1-yl}cyclohexanecarbonitrile] | 0.26 | 0.45
6 | N#C[C@H]1CCCC[C@@H]1n1nc(Nc2cccc([C@@H](N)C(F)(F)F)c2)c2c(=O)[nH]ccc21 [Example 7-2, (1S,2S)-2-[3-({3-[(1R)-1-amino-2,2,2-trifluoroethyl]phenyl}amino)-4-oxo-4,5-dihydro-1H-pyrazolo[4,3-c]pyridin-1-yl]cyclohexanecarbonitrile] | 0.26 | 2.2
7 | N#C[C@H]1CCCC[C@@H]1n1nc(Nc2ccc3c(c2)CN(C(=O)c2cnc(N4CCCCC4)cn2)C3)c2c(=O)[nH]ccc21 [Example 3-158, (1S,2S)-2-[4-oxo-3-({2-[(5-piperidin-1-ylpyrazin-2-yl)carbonyl]-2,3-dihydro-1H-isoindol-5-yl}amino)-4,5-dihydro-1H-pyrazolo[4,3-c]pyridin-1-yl]cyclohexanecarbonitrile] | 0.98 | 1.5
8 | N#C[C@H]1CCCC[C@@H]1n1nc(Nc2ccc(S(=O)(=O)N3CCCCC3)cc2)c2c(=O)[nH]ccc21 [Example 3-23, (1S,2S)-2-(4-oxo-3-{[4-(piperidin-1-ylsulfonyl)phenyl]amino}-4,5-dihydro-1H-pyrazolo[4,3-c]pyridin-1-yl)cyclohexanecarbonitrile] | 0.31 | 0.48
9 | N#C[C@H]1CCCC[C@@H]1n1nc(Nc2ccc3c(c2)CN(CC(F)(F)F)C3)c2c(=O)[nH]ccc21 [Example 3-61, (1S,2S)-2-(4-oxo-3-{[2-(2,2,2-trifluoroethyl)-2,3-dihydro-1H-isoindol-5-yl]amino}-4,5-dihydro-1H-pyrazolo[4,3-c]pyridin-1-yl}cyclohexanecarbonitrile] | 0.55 | 1.1
10 | N#C[C@H]1CCCC[C@@H]1n1nc(Nc2ccc(CNC(=O)c3ncccn3)cc2)c2c(=O)[nH]ccc21 [Example 3-30, N-[4-({1-[(1S,2S)-2-cyanocyclohexyl]-4-oxo-4,5-dihydro-1H-pyrazolo[4,3-c]pyridin-3-yl}amino)benzyl]pyrimidine-2-carboxamide] | 0.29 | 2

The next compounds have a lower IC50 (JAK1) than those just listed; values first:

Row | IC50 (JAK1) [nM] | IC50 (JAK2) [nM] | Compound
11 | 0.081 | 0.4 | N#C[C@H]1CCCCC[C@@H]1n1nc(Nc2ccc3c(c2)CN(C2CCOCC2)S3(=O)=O)c2c(=O)[nH]ccc21 (single isomer, unassigned) [Example 15-54, (1S,2S or 1R,2R)-2-(3-{[1,1-dioxido-2-(tetrahydro-2H-pyran-4-yl)-2,3-dihydro-1,2-benzisothiazol-5-yl]amino}-4-oxo-4,5-dihydro-1H-pyrazolo[4,3-c]pyridin-1-yl)cycloheptanecarbonitrile]
12 | 0.1 | 0.49 | N#C[C@H]1CCCC[C@@H]1n1nc(Nc2cccc(Cn3ccnn3)c2)c2c(=O)[nH]ccc21 [Example 3-26, (1S,2S)-2-(4-oxo-3-{[3-(1H-1,2,3-triazol-1-ylmethyl)phenyl]amino}-4,5-dihydro-1H-pyrazolo[4,3-c]pyridin-1-yl)cyclohexanecarbonitrile]
13 | 0.17 | 0.43 | CC(C)(C)NS(=O)(=O)c1ccc(Nc2nn([C@H]3CCCC[C@@H]3C#N)c3cc[nH]c(=O)c23)cc1 [Example 3-140, N-tert-butyl-4-({1-[(1S,2S)-2-cyanocyclohexyl]-4-oxo-4,5-dihydro-1H-pyrazolo[4,3-c]pyridin-3-yl}amino)benzenesulfonamide]
14 | 0.12 | 0.38 | N#C[C@H]1CCCC[C@@H]1n1nc(Nc2ccc3c(c2)CC2(CCCCC2)S3(=O)=O)c2c(=O)[nH]ccc21 [Example 21-2, (1S,2S)-2-(3-((1,1-Dioxido-3H-spiro[benzo[b]thiophene-2,1′-cyclohexan]-5-yl)amino)-4-oxo-4,5-dihydro-1H-pyrazolo[4,3-c]pyridin-1-yl)cyclohexanecarbonitrile]
15 | 0.051 | 0.66 | CN1Cc2cc(Nc3nn([C@H]4CCC[C@@H]4C#N)c4cc[nH]c(=O)c34)ccc2S1(=O)=O [Example 3-102, (1S,2S)-2-{3-[(2-methyl-1,1-dioxido-2,3-dihydro-1,2-benzisothiazol-5-yl)amino]-4-oxo-4,5-dihydro-1H-pyrazolo[4,3-c]pyridin-1-yl}cyclopentanecarbonitrile]
16 | 0.092 | 1.6 | Cc1nc2ccc(Nc3nn([C@H]4CCCC[C@@H]4C#N)c4cc[nH]c(=O)c34)cc2s1 [Example 15-10, (1S,2S)-2-{3-[(2-methyl-1,3-benzothiazol-6-yl)amino]-4-oxo-4,5-dihydro-1H-pyrazolo[4,3-c]pyridin-1-yl}cyclohexanecarbonitrile]
17 | 0.12 | 0.43 | N#C[C@H]1CCCC[C@@H]1n1nc(Nc2ccc3c(c2)CN(CC(F)(F)F)C3=O)c2c(=O)[nH]ccc21 [Example 3-10, (1S,2S)-2-(4-oxo-3-{[1-oxo-2-(2,2,2-trifluoroethyl)-2,3-dihydro-1H-isoindol-5-yl]amino}-4,5-dihydro-1H-pyrazolo[4,3-c]pyridin-1-yl)cyclohexanecarbonitrile]
18 | 0.13 | 0.84 | CC(O)(c1ccc(Nc2nn([C@H]3CCCC[C@@H]3C#N)c3cc[nH]c(=O)c23)cc1)C(F)(F)F (single isomer, unassigned) [Example 15-11, (1S,2S)-2-[4-oxo-3-({4-[(1R or 1S)-2,2,2-trifluoro-1-hydroxy-1-methylethyl]phenyl}amino)-4,5-dihydro-1H-pyrazolo[4,3-c]pyridin-1-yl]cyclohexanecarbonitrile]
